This passage reports Ki results from patent publication US20110086834A1, “ALKYNYL ALCOHOLS AS KINASE INHIBITORS” (AMGEN INC., priority 2008, published 2011).

In general, Ki refers to a measure of affinity in units of concentration, obtained from inhibition or displacement.

T1 sequence (Q99558 400-655 limits assumed): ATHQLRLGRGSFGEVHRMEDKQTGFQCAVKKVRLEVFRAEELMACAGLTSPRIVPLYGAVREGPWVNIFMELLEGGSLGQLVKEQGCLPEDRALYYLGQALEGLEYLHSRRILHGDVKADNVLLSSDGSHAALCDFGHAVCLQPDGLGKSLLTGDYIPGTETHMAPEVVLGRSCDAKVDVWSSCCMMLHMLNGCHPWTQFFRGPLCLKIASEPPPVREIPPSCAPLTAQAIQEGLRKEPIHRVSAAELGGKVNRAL

This assay concerns the target T1, NIK (Homo sapiens, UniProt Q99558).
T1 construct: Both assays utilize a truncated form of NIK containing only the catalytic domain; made in house; host or cells: baculovirus expression system (insect cells implied)
Briefly: homogenous time resolved fluorescence (HTRF) assay for NIK Ki measurement. Particulars: truncated NIK (catalytic domain only), autophosphorylation; 10 nM enzyme; 20, 100, 200 or 500 μM ATP; room temperature, 2 hours; read-out: Ki activity in the homogenous time resolved fluorescence (HTRF) assay for NIK. The class given is biochemical. A general note: TR-FRET usually uses a lanthanide donor and a delayed reading to cut background.
Regarding `COCCN(C)c1ccc(C#C[C@@](C)(O)c2nccs2)cc1Nc1nc(N)ncc1Cl` [Example 154, (R)-4-(3-(2-Amino-5-chloropyrimidin-4-ylamino)-4-((2-methoxyethyl)(methyl)amino)phenyl)-2-(thiazol-2-yl)but-3-yn-2-ol], the Ki was under 1000 nM. With `COc1cc(C#CC2(O)CCCC2)cc2c1ccn2-c1nc(N)ncc1F` [Example 102, 1-((1-(2-amino-5-fluoropyrimidin-4-yl)-4-methoxy-1H-indol-6-yl)ethynyl)cyclopentanol] the figure was under 1000 nM; with `Nc1ncc(Cl)c(-c2cn(CCN3CCOCC3)c3ccc(C#CC4(O)CCCCC4)cc23)n1` [Example 132, 1-(2-(3-(2-amino-5-chloropyrimidin-4-yl)-1-(2-morpholinoethyl)-1H-indol-5-yl)ethynyl)cyclohexanol], under 1000 nM; with `C[C@@](O)(C#Cc1ccc2[nH]c(C(=O)N3CCOCC3)c(-c3ccncn3)c2c1)c1nccs1` [Example 91, (5-((R)-3-hydroxy-3-(thiazol-2-yl)but-1-ynyl)-3-(pyrimidin-4-yl)-1H-indol-2-yl)(morpholino)methanone], under 1000 nM. The value for `Nc1ncc(Cl)c(N2CC3(CS(=O)(=O)C3)c3ccc(C#CC4(O)CCCC4)cc32)n1` [Example 212, 1-((1-(2-Amino-5-chloro-4-pyrimidinyl)-1′,1′-dioxido-1,2-dihydrospiro[indole-3,3′-thietan]-6-yl)ethynyl)cyclopentanol] was under 1000 nM. The value for `CC(O)(C#Cc1ccc2c(c1)N(c1ncns1)CC2(C)C)c1cnccn1` (stereo not drawn) [Example 13, 4-(3,3-dimethyl-1-(1,2,4-thiadiazol-5-yl)indolin-6-yl)-2-(pyrazin-2-yl)but-3-yn-2-ol] was under 1000 nM; that for `COCCOc1cnc(N)nc1-c1c[nH]c2ccc(C#CC(O)(c3cccc(F)c3)C(F)(F)F)cc12` (stereo not drawn) [Example 236, 4-(3-(2-Amino-5-(2-methoxyethoxy)-4-pyrimidinyl)-1H-indol-5-yl)-1,1,1-trifluoro-2-(3-fluorophenyl)-3-butyn-2-ol] was 1000 to 30000 nM. As for `Nc1ncc(Cl)c(-c2cn(CCOCCOCCO)c3ccc(C#CC4(O)CCCC4)cc23)n1` [Example 130], the Ki was under 1000 nM. The value for `CC(O)(C#Cc1ccc2ncc(-c3ccnc(N)n3)n2c1)c1nccs1` (stereo not drawn) [Example 292, 4-(3-(2-Amino-4-pyrimidinyl)imidazo[1,2-a]pyridin-6-yl)-2-(1,3-thiazol-2-yl)-3-butyn-2-ol] was under 1000 nM; that for `Cc1csc(C(C)(O)C#Cc2ccc3c(c2)N(c2ccnc(N)n2)CC3)c1` (stereo not drawn) [Example 277, 4-(1-(2-amino-4-pyrimidinyl)-2,3-dihydro-1H-indol-6-yl)-2-(4-methyl-2-thienyl)-3-butyn-2-ol] was under 1000 nM; that for `Cc1cc([C@@](C)(O)C#Cc2ccc3c(c2)N(c2nc(N)ncc2Cl)CC3)no1` (single isomer, unassigned) [Example 24] was 1000 to 30000 nM. Regarding `COCCOc1cnc(N)nc1-c1c[nH]c2ccc(C#CC(C)(O)C(F)(F)F)cc12` (stereo not drawn) [Example 261, 4-(3-(2-Amino-5-((2-(methyloxy)ethyl)oxy)-4-pyrimidinyl)-1H-indol-5-yl)-1,1,1-trifluoro-2-methyl-3-butyn-2-ol], the Ki is 1000 to 30000 nM. The value for `C[C@@](O)(C#Cc1ccc2c(c1)N(c1nc(N)ncc1Cl)CC21CCCC1)c1nccs1` [Example 318] was under 1000 nM; that for `CN1CCC(n2cc(-c3nc(N)ncc3Cl)c3cc(C#CC4(O)CCCC4)ccc32)C1` (stereo not drawn) [Example 139, 1-(2-(3-(2-amino-5-chloropyrimidin-4-yl)-1-(1-methylpyrrolidin-3-yl)-1H-indol-5-yl)ethynyl)cyclopentanol] was under 1000 nM. The value for `CC(O)(C#Cc1ccc2c(c1)N(c1ncns1)CC2(C)C)c1nccs1` (stereo not drawn) [Example 12, 4-(3,3-dimethyl-1-(1,2,4-thiadiazol-5-yl)indolin-6-yl)-2-(thiazol-2-yl)but-3-yn-2-ol] was under 1000 nM.
